The target in one assay is T1, Alpha-1D adrenergic receptor (Homo sapiens, UniProt P25100). Note: in other assays of this panel Not Active means under 50% inhibition at 10 µM.
T1 sequence (P25100 whole entry): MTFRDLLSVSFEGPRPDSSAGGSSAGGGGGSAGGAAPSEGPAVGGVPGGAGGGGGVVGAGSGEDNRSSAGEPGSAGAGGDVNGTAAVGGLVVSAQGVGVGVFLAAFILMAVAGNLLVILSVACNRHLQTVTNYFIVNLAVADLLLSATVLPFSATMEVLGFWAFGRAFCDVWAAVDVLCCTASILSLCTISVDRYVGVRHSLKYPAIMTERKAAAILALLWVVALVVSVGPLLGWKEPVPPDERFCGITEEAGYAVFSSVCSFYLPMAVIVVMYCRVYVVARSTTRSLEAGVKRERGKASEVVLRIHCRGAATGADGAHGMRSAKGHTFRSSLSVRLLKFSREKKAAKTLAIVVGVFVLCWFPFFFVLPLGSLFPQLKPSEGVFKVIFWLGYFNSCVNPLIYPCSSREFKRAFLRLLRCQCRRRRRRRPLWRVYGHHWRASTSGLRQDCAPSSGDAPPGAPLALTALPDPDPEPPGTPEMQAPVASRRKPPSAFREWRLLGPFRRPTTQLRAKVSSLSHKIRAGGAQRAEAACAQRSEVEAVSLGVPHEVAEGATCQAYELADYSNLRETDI
Assay: not given
The assay is classed as cell membranes, HEK293, Membrane. Conditions: hek293.
Mitogen-activated protein kinase 1, sequence (P28482 whole entry): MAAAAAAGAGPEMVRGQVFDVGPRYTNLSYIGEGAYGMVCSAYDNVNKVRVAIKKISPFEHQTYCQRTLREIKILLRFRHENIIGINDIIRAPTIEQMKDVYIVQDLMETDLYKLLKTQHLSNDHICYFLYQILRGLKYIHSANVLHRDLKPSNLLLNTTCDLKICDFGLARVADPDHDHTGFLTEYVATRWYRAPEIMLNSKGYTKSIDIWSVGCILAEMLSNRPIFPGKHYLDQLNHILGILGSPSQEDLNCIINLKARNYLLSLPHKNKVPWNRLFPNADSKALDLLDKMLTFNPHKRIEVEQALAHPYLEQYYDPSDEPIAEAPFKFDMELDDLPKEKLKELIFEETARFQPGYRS
Platelet-activating factor receptor, sequence (P25105 whole entry): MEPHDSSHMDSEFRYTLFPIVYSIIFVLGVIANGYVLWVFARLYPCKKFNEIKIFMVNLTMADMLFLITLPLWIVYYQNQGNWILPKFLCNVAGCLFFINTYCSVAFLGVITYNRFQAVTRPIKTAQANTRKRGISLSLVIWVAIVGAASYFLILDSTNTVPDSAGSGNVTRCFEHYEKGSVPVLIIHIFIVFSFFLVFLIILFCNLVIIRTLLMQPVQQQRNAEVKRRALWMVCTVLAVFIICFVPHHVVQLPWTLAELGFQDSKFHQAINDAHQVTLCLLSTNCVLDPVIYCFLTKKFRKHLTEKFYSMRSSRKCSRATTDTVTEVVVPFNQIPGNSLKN
Consider `CC(=O)[C@@]1(O)CC[C@H]2[C@@H]3C[C@H](C)C4=CC(=O)C=C[C@]4(C)[C@@]3(F)[C@@H](O)C[C@@]21C` [FLUOROMETHOLONE], for which the IC50 entry is recorded as “Not Active”.

Tested on in a further assay: not listed separately
The experiment in a line: DRUGMATRIX: Calcium Channel Type L, Phenylalkylamine radioligand binding (ligand: [3H] (-)-Desmethoxyverapamil (D-888)). The assay is classed as cell membranes, Rattus norvegicus, Wistar, Brain, Membrane. Conditions: Not Active = under 50% inhibition at 10 µM.
Take `CC(=O)[C@@]1(O)CC[C@H]2[C@@H]3C[C@H](C)C4=CC(=O)C=C[C@]4(C)[C@@]3(F)[C@@H](O)C[C@@]21C` [FLUOROMETHOLONE]: the IC50 entry is on record as “Not Active” and the Ki result is given as “Not Active”.

For the next assay, the target named is Prostaglandin G/H synthase 1 (Homo sapiens, UniProt P23219). The experiment in a line: biochemical. Particulars: platelet. The assay is classed as tissue-based, Platelet.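 Note: inhibition of COX-1 enzyme activity, with arachidonic acid supplied as substrate; in other assays of this panel Not Active means under 50% inhibition at 10 µM.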
Prostaglandin G/H synthase 1, sequence (P23219 whole entry): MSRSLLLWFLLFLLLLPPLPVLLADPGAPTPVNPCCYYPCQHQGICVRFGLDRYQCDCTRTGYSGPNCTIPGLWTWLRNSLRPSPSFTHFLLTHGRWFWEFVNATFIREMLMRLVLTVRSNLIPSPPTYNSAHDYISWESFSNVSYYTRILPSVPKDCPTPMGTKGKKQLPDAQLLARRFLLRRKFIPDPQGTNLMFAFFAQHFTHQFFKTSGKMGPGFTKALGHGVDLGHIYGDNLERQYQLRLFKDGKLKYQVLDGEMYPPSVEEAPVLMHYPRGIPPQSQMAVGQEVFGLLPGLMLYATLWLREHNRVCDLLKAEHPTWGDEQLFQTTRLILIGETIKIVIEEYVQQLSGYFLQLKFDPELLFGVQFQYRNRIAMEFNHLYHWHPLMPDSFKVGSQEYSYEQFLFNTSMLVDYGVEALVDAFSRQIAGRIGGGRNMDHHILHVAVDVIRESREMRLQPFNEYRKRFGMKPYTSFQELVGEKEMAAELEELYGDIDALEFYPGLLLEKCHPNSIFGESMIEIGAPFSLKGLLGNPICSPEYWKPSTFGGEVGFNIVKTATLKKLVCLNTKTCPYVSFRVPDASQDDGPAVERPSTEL
Take `CC(=O)[C@@]1(O)CC[C@H]2[C@@H]3C[C@H](C)C4=CC(=O)C=C[C@]4(C)[C@@]3(F)[C@@H](O)C[C@@]21C` [FLUOROMETHOLONE]: the IC50 result is given as “Not Active”.

In another assay the target is D(3) dopamine receptor (Homo sapiens, UniProt P35462). The experiment in a line: DRUGMATRIX: Dopamine D3 radioligand binding (ligand: [3H] Spiperone). In kind it is cell membranes, CHO, Membrane. Particulars: cho.
D(3) dopamine receptor, sequence (P35462 whole entry): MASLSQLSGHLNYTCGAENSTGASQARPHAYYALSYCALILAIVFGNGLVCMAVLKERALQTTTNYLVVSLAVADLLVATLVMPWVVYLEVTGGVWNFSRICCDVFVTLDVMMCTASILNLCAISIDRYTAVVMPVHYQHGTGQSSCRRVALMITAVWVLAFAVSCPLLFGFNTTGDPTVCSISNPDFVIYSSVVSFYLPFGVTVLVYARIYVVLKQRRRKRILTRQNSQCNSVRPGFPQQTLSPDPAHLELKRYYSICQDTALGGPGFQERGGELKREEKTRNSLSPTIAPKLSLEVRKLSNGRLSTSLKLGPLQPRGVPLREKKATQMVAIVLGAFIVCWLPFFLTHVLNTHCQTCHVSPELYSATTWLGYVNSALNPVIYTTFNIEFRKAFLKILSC
Take `CC(=O)[C@@]1(O)CC[C@H]2[C@@H]3C[C@H](C)C4=CC(=O)C=C[C@]4(C)[C@@]3(F)[C@@H](O)C[C@@]21C` [FLUOROMETHOLONE]: the IC50 result is recorded as “Not Active”.

Tested on in another assay: not listed separately
Nature of the assay: DRUGMATRIX: Glutamate, NMDA, Agonism radioligand binding (ligand: [3H] CGP-39653). The assay is classed as cell membranes, Rattus norvegicus, Wistar, Cerebral cortex, Membrane. Particulars: Not Active = under 50% inhibition at 10 µM.
`CC(=O)[C@@]1(O)CC[C@H]2[C@@H]3C[C@H](C)C4=CC(=O)C=C[C@]4(C)[C@@]3(F)[C@@H](O)C[C@@]21C` [FLUOROMETHOLONE]: the IC50 result is reported as “Not Active” and the Ki result was “Not Active”.

Tested on in another assay: not listed separately
Nature of the assay: DRUGMATRIX: Glutamate, NMDA, Phencyclidine radioligand binding (ligand: [3H] TCP). In kind it is cell membranes, Rattus norvegicus, Wistar, Cerebral cortex, Membrane. Particulars: Not Active = under 50% inhibition at 10 µM.
For the compound `CC(=O)[C@@]1(O)CC[C@H]2[C@@H]3C[C@H](C)C4=CC(=O)C=C[C@]4(C)[C@@]3(F)[C@@H](O)C[C@@]21C` [FLUOROMETHOLONE], the IC50 entry is recorded as “Not Active” and the Ki result is listed as “Not Active”.

Another assay addresses T2, 3-hydroxy-3-methylglutaryl-coenzyme A reductase (Homo sapiens, UniProt P04035).
T2 sequence (P04035 whole entry): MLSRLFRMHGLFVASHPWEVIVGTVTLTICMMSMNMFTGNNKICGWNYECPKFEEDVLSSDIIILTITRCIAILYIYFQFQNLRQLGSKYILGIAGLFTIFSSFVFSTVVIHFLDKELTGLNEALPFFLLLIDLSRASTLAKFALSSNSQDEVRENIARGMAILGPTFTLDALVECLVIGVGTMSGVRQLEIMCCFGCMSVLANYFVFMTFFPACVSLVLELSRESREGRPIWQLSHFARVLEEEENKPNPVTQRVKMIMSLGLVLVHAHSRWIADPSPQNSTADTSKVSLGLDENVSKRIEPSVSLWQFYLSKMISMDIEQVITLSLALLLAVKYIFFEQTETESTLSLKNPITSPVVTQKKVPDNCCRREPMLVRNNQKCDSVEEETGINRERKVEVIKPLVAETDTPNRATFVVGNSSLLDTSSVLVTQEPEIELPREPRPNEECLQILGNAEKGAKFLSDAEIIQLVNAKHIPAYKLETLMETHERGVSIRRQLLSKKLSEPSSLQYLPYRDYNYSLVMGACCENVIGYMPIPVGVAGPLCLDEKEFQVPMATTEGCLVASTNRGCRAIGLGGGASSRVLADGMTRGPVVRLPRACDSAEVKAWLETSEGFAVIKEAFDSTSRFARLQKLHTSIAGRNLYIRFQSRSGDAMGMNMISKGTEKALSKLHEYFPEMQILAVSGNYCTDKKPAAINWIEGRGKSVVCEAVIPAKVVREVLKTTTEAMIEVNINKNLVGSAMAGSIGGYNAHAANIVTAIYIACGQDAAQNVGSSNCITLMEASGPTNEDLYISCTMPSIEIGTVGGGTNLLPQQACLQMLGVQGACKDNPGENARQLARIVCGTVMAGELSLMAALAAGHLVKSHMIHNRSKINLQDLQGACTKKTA
Assay: not given
Set-up: species or system Escherichia coli.
Details: not given
In the case of `CC(=O)[C@@]1(O)CC[C@H]2[C@@H]3C[C@H](C)C4=CC(=O)C=C[C@]4(C)[C@@]3(F)[C@@H](O)C[C@@]21C` [FLUOROMETHOLONE], the IC50 result was “Not Active”.

In another assay the target is Melanocortin receptor 3 (Homo sapiens, UniProt P41968). Note: in other assays of this panel Not Active means under 50% inhibition at 10 µM.
Melanocortin receptor 3, sequence (P41968 whole entry): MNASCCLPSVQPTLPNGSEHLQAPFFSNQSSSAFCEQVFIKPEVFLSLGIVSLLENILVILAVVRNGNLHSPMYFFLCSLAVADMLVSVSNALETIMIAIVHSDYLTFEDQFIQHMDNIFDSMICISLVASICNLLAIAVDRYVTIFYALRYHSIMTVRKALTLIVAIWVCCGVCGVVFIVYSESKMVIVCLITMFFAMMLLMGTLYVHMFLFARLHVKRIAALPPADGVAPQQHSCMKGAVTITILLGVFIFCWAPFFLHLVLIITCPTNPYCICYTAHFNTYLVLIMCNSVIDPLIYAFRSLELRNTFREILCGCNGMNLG
Assay: not given
In kind it is cell membranes, Membrane. Conditions: hek293.
For `CC(=O)[C@@]1(O)CC[C@H]2[C@@H]3C[C@H](C)C4=CC(=O)C=C[C@]4(C)[C@@]3(F)[C@@H](O)C[C@@]21C` [FLUOROMETHOLONE], the IC50 result is “Not Active”.

Tested on in a further assay: not listed separately
Nature of the assay: DRUGMATRIX: Phosphodiesterase PDE4 enzyme inhibition (substrate: [3H]cAMP + cAMP). Conditions: u-937; Not Active = under 50% inhibition at 10 µM.
With `CC(=O)[C@@]1(O)CC[C@H]2[C@@H]3C[C@H](C)C4=CC(=O)C=C[C@]4(C)[C@@]3(F)[C@@H](O)C[C@@]21C` [FLUOROMETHOLONE], the IC50 entry is “Not Active” and the Ki entry is reported as “Not Active”.

The next assay has as its target Platelet-activating factor receptor (Homo sapiens, UniProt P25105). The experiment in a line: biochemical. The assay is classed as tissue-based. Conditions: platelet. Note: in other assays of this panel Not Active means under 50% inhibition at 10 µM.
As for `CC(=O)[C@@]1(O)CC[C@H]2[C@@H]3C[C@H](C)C4=CC(=O)C=C[C@]4(C)[C@@]3(F)[C@@H](O)C[C@@]21C` [FLUOROMETHOLONE], the IC50 result is listed as “Not Active”.

Another assay has as its target T3, Interstitial collagenase (Homo sapiens, UniProt P03956).
T3 sequence (P03956 whole entry): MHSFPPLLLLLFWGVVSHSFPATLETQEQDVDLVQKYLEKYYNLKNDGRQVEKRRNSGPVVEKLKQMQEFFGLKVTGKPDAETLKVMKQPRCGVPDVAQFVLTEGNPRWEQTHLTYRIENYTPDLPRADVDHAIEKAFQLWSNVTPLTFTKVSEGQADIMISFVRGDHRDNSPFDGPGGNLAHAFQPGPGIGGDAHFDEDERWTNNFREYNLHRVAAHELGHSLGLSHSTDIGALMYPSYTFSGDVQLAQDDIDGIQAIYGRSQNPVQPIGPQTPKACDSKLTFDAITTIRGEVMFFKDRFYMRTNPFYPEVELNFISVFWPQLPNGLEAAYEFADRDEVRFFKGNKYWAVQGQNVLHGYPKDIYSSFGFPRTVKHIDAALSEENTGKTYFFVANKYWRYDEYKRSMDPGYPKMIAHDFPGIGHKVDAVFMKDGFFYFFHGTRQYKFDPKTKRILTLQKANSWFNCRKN
Assay: not given
The assay is classed as tissue-based, Rheumatoid synovial fibroblasts.
Details: not given
As to `CC(=O)[C@@]1(O)CC[C@H]2[C@@H]3C[C@H](C)C4=CC(=O)C=C[C@]4(C)[C@@]3(F)[C@@H](O)C[C@@]21C` [FLUOROMETHOLONE], the IC50 result is “Not Active”.

The next assay addresses Mitogen-activated protein kinase 1 (Homo sapiens, UniProt P28482). The experiment in a line: DRUGMATRIX: Protein Serine/Threonine Kinase, ERK2 enzyme inhibition (substrate: Myelin Basic Protein). Details: species or system Escherichia coli. Particulars: Not Active = under 50% inhibition at 10 µM.
In the case of `CC(=O)[C@@]1(O)CC[C@H]2[C@@H]3C[C@H](C)C4=CC(=O)C=C[C@]4(C)[C@@]3(F)[C@@H](O)C[C@@]21C` [FLUOROMETHOLONE], the IC50 entry is on record as “Not Active”.

The target in another assay is T4, Adenosine receptor A1 (Homo sapiens, UniProt P30542).
T4 sequence (P30542 whole entry): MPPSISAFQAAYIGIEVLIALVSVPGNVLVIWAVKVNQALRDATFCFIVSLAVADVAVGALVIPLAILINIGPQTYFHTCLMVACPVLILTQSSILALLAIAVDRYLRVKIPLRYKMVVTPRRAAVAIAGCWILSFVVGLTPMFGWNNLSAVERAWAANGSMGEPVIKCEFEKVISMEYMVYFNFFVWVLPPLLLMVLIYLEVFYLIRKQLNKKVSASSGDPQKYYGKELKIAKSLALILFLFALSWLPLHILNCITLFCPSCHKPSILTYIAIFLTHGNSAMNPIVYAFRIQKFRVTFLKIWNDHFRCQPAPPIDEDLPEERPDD
Assay: not given
In kind it is cell membranes, CHO, Membrane. Particulars: cho.
In the case of `CC(=O)[C@@]1(O)CC[C@H]2[C@@H]3C[C@H](C)C4=CC(=O)C=C[C@]4(C)[C@@]3(F)[C@@H](O)C[C@@]21C` [FLUOROMETHOLONE], the IC50 entry is “Not Active”.

The record behind these values is ChEMBL document CHEMBL1909046, “DrugMatrix in vitro pharmacology data”.
